Reference: patent publication US20180099931A1 (AbbVie S.à.r.l., priority 2016, published 2018)
pEC50: −log10 of the molar value. Where two headings read alike, the source gives them in different places.

Biological target: T1, F508delCFTR (Homo sapiens, UniProt P13569, DEL508-508)
T1 construct: expressed in transfected cells; host or cells: CFBE41o- human lung-derived epithelial cells (CFBE4lo-F508delCFTR-HRP), doxycycline-inducible
Assay: Cell Surface Expression-Horse Radish Peroxidase (CSE-HRP) Assay;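 on Maximum % activity (with co-corrector): co-corrector and positive control are both the same reference corrector at 2 µM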;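 on Maximum % activity (without co-corrector): percent of the 2 µM on-plate positive control corrector response above DMSO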
Type: cell-based
Details: CSE-HRP; for Maximum % activity (with co-corrector): with co-corrector (2 μM); for Maximum % activity (with co-corrector) / Emax: maximum at any tested concentration, normalized to on-plate positive control; for Emax: without co-corrector, read-out: Maximum % activity (without co-corrector)

[1] = test compound without co-corrector, read-out: EC50 (without co-corrector)
[2] = with co-corrector (2 μM of 3-[(2R,4R)-4-({[1-(2,2-difluoro-1,3-benzodioxol-5-yl)cyclopropyl]carbonyl}amino)-7-methoxy-3,4-dihydro-2H-chromen-2-yl]benzoic acid), read-out: EC50 (with co-corrector)

T1 sequence (P13569 with tags, fused parts or gaps DEL508-508): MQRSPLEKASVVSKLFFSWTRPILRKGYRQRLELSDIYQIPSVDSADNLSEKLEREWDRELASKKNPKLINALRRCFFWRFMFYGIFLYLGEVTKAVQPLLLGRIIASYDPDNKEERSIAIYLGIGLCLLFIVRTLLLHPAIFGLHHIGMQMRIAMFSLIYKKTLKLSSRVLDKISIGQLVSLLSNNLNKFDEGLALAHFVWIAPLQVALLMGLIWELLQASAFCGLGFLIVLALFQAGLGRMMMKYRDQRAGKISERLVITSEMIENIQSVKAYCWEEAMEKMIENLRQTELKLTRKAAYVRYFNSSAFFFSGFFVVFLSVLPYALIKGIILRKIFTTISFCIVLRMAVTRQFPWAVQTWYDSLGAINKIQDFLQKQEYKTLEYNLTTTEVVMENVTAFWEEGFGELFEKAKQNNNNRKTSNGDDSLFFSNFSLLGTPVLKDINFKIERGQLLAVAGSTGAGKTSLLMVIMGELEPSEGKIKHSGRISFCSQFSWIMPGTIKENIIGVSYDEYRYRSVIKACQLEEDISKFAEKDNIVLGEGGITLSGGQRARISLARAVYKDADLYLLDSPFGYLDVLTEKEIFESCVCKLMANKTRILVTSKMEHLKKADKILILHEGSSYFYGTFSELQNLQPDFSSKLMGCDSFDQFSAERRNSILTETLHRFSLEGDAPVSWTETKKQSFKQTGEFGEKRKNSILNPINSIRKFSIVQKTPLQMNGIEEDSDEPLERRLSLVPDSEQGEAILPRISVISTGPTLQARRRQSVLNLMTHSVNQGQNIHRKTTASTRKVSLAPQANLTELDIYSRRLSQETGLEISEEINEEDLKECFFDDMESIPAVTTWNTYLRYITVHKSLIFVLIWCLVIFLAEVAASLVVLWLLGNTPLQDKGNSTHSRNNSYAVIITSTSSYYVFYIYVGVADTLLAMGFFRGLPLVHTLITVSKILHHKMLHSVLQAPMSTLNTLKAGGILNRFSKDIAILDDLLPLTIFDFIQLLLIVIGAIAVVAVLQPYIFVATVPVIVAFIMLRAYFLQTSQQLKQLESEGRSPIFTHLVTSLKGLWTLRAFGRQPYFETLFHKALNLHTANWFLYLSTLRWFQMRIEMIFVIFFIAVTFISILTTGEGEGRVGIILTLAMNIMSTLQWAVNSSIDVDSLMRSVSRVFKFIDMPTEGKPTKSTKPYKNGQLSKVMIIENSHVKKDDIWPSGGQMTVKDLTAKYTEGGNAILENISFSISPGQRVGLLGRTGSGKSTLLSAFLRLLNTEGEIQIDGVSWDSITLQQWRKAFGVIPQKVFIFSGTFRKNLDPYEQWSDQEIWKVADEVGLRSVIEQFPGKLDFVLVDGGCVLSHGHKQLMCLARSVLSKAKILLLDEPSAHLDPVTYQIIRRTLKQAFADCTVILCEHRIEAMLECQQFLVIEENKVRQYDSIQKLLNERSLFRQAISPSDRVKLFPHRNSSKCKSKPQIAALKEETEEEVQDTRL

SMILES	pEC50 [1]	pEC50 [2]	Maximum % activity (with co-corrector)	Emax
COc1ccc(Cl)cc1CN[C@H]1[C@H](C(C)(C)C)[C@@H](C(=O)O)N(C(=O)C2CCCCC2)[C@H]1c1ccccc1 [II-97]	5.00 to 6.00	> 6.00	+++ (≥350)	> 200%
COc1cc(Cl)ccc1CN[C@H]1[C@H](C(C)(C)C)[C@@H](C(=O)O)N(C(=O)C2CCCCC2)[C@H]1c1ccccc1 [II-99]	5.00 to 6.00	5.00 to 6.00	+++ (≥350)	100 to 200%
CC(C)(C)[C@H]1[C@H](NCc2coc3ccccc23)[C@H](c2ccccc2)N(C(=O)C2CCCCC2)[C@@H]1C(=O)O [II-100]	5.00 to 6.00	5.00 to 6.00	++ (≥150 and <350)	< 100%
COc1cc(C(C)(C)C)ccc1CN[C@H]1[C@H](C(C)(C)C)[C@@H](C(=O)O)N(C(=O)C2CCCCC2)[C@H]1c1cccnc1OC [II-101]	5.00 to 6.00	5.00 to 6.00	+++ (≥350)	100 to 200%
COc1cc(C(C)(C)C)ccc1CN[C@H]1[C@H](C(C)(C)C)[C@@H](C(=O)O)N(C(=O)C2CCCCC2)[C@H]1c1cccnc1N(C)C [II-102]	5.00 to 6.00	> 6.00	+++ (≥350)	100 to 200%
COc1cc(C(C)(C)C)ccc1CN[C@H]1[C@H](C(C)(C)C)[C@@H](C(=O)O)N(C(=O)C2CCCCC2)[C@H]1c1ccccc1 [II-103]	5.00 to 6.00	5.00 to 6.00	+++ (≥350)	100 to 200%
COc1cc(CN[C@H]2[C@H](C(C)(C)C)[C@@H](C(=O)O)N(C(=O)C3CCCCC3)[C@H]2c2ccccc2)c(F)cc1Cl [II-104]	5.00 to 6.00	5.00 to 6.00	++ (≥150 and <350)	< 100%
CC(C)(C)[C@H]1[C@H](NCc2cc(Cl)ccc2Cl)[C@H](c2ccccc2)N(C(=O)C2CCCCC2)[C@@H]1C(=O)O [II-105]	5.00 to 6.00	5.00 to 6.00	+++ (≥350)	< 100%
COc1ccc(F)c(CN[C@H]2[C@H](C(C)(C)C)[C@@H](C(=O)O)N(C(=O)C3CCCCC3)[C@H]2c2ccccc2)c1 [II-106]	5.00 to 6.00	5.00 to 6.00	++ (≥150 and <350)	< 100%
CC(C)(C)[C@H]1[C@H](NCc2cc(Cl)ccc2OC(F)F)[C@H](c2ccccc2)N(C(=O)C2CCCCC2)[C@@H]1C(=O)O [II-107]	> 6.00	5.00 to 6.00	+++ (≥350)	< 100%
CC(C)(C)[C@H]1[C@H](NCc2cc(C(F)(F)F)cc(C(F)(F)F)c2)[C@H](c2ccccc2)N(C(=O)C2CCCCC2)[C@@H]1C(=O)O [II-108]	5.00 to 6.00	5.00 to 6.00	+++ (≥350)	< 100%
COc1ccc(CN[C@H]2[C@H](C(C)(C)C)[C@@H](C(=O)O)N(C(=O)C3CCCCC3)[C@H]2c2ccccc2)c(C(F)(F)F)c1 [II-109]	> 6.00	5.00 to 6.00	++ (≥150 and <350)	< 100%
COc1ccc(Br)c(CN[C@H]2[C@H](C(C)(C)C)[C@@H](C(=O)O)N(C(=O)C3CCCCC3)[C@H]2c2ccccc2)c1 [II-110]	5.00 to 6.00	5.00 to 6.00	+++ (≥350)	< 100%
CC(C)(C)[C@H]1[C@H](NCc2cc(Cl)cc(Cl)c2)[C@H](c2ccccc2)N(C(=O)C2CCCCC2)[C@@H]1C(=O)O [II-111]	5.00 to 6.00	5.00 to 6.00	++ (≥150 and <350)	< 100%
COc1cc(CN[C@H]2[C@H](C(C)(C)C)[C@@H](C(=O)O)N(C(=O)C3CCCCC3)[C@H]2c2ccccc2)ccc1F [II-112]	< 5.00	5.00 to 6.00	++ (≥150 and <350)	< 100%
CC(C)(C)[C@H]1[C@H](NCc2ccc(Cl)cc2Cl)[C@H](c2ccccc2)N(C(=O)C2CCCCC2)[C@@H]1C(=O)O [II-113]	> 6.00	5.00 to 6.00	+++ (≥350)	< 100%
COc1cc(CN[C@H]2[C@H](C(C)(C)C)[C@@H](C(=O)O)N(C(=O)C3CCCCC3)[C@H]2c2ccccc2)c(Br)cc1F [II-114]	> 6.00	5.00 to 6.00	+++ (≥350)	< 100%
CC(C)(C)[C@H]1[C@H](NCc2cc(F)cc(F)c2)[C@H](c2ccccc2)N(C(=O)C2CCCCC2)[C@@H]1C(=O)O [II-115]	< 5.00	5.00 to 6.00	++ (≥150 and <350)	< 100%

SMILES	pEC50 [1]	pEC50 [2]	Maximum % activity (with co-corrector)	Emax
COc1cc2c(cc1CN[C@H]1[C@H](C(C)(C)C)[C@@H](C(=O)O)N(C(=O)C3CCCCC3)[C@H]1c1ccccc1)OCO2 [II-116]	5.00 to 6.00	5.00 to 6.00	+++ (≥350)	100 to 200%
Cc1ccc(C)c(CN[C@H]2[C@H](C(C)(C)C)[C@@H](C(=O)O)N(C(=O)C3CCCCC3)[C@H]2c2ccccc2)c1 [II-117]	5.00 to 6.00	5.00 to 6.00	+++ (≥350)	< 100%
COc1cc(F)ccc1CN[C@H]1[C@H](C(C)(C)C)[C@@H](C(=O)O)N(C(=O)C2CCCCC2)[C@H]1c1ccccc1 [II-118]	5.00 to 6.00	5.00 to 6.00	+++ (≥350)	100 to 200%
CCOc1ccc(CN[C@H]2[C@H](C(C)(C)C)[C@@H](C(=O)O)N(C(=O)C3CCCCC3)[C@H]2c2ccccc2)c(C)c1 [II-119]	5.00 to 6.00	5.00 to 6.00	++ (≥150 and <350)	< 100%
COc1ccc(C(F)(F)F)cc1CN[C@H]1[C@H](C(C)(C)C)[C@@H](C(=O)O)N(C(=O)[C@@H](C)OC)[C@H]1c1ccccc1 [II-120]	5.00 to 6.00	5.00 to 6.00	+++ (≥350)	100 to 200%
CC(C)(C)c1cccc(CN[C@H]2[C@H](C(C)(C)C)[C@@H](C(=O)O)N(C(=O)C3CCCCC3)[C@H]2c2ccccc2)c1 [II-121]	5.00 to 6.00	5.00 to 6.00	++ (≥150 and <350)	< 100%
CC(C)(C)[C@H]1[C@H](NCc2cccc(C(F)(F)F)c2)[C@H](c2ccccc2)N(C(=O)C2CCCCC2)[C@@H]1C(=O)O [II-122]	5.00 to 6.00	5.00 to 6.00	++ (≥150 and <350)	< 100%
COc1cc(C)ccc1CN[C@H]1[C@H](C(C)(C)C)[C@@H](C(=O)O)N(C(=O)[C@@H]2CCCCO2)[C@H]1c1cccnc1OC [II-123]	5.00 to 6.00	5.00 to 6.00	++ (≥150 and <350)	< 100%
COc1cc(C(C)(C)C)ccc1CN[C@H]1[C@H](C(C)(C)C)[C@@H](C(=O)O)N(C(=O)C2CCCCC2)[C@H]1c1ccccc1OC(F)F [II-124]	> 6.00	> 6.00	+++ (≥350)	100 to 200%
COc1cc2c(cc1CN[C@H]1[C@H](C(C)(C)C)[C@@H](C(=O)O)N(C(=O)C3CCCCC3)[C@H]1c1ccccc1)CCCC2 [II-125]	5.00 to 6.00	> 6.00	+++ (≥350)	> 200%
CCOc1ccc(Br)cc1CN[C@H]1[C@H](C(C)(C)C)[C@@H](C(=O)O)N(C(=O)C2CCCCC2)[C@H]1c1ccccc1 [II-126]	5.00 to 6.00	5.00 to 6.00	+++ (≥350)	100 to 200%
COc1ccc(CN[C@H]2[C@H](C(C)(C)C)[C@@H](C(=O)O)N(C(=O)C3CCCCC3)[C@H]2c2ccccc2)cc1C(F)(F)F [II-127]	5.00 to 6.00	5.00 to 6.00	++ (≥150 and <350)	< 100%
COc1cc(F)c(F)cc1CN[C@H]1[C@H](C(C)(C)C)[C@@H](C(=O)O)N(C(=O)C2CCCCC2)[C@H]1c1ccccc1 [II-128]	5.00 to 6.00	5.00 to 6.00	+++ (≥350)	100 to 200%
CCOc1cc2c(cc1CN[C@H]1[C@H](C(C)(C)C)[C@@H](C(=O)O)N(C(=O)C3CCCCC3)[C@H]1c1ccccc1)CCC2 [II-129]	5.00 to 6.00	5.00 to 6.00	+++ (≥350)	100 to 200%
CC(C)(C)[C@H]1[C@H](NCc2ccc(F)c(Oc3ccccc3)c2)[C@H](c2ccccc2)N(C(=O)C2CCCCC2)[C@@H]1C(=O)O [II-130]	5.00 to 6.00	5.00 to 6.00	++ (≥150 and <350)	< 100%
Cc1ccc(CN[C@H]2[C@H](C(C)(C)C)[C@@H](C(=O)O)N(C(=O)C3CCCCC3)[C@H]2c2ccccc2)c(C)c1 [II-131]	5.00 to 6.00	5.00 to 6.00	++ (≥150 and <350)	100 to 200%
Cc1cc(C)cc(CN[C@H]2[C@H](C(C)(C)C)[C@@H](C(=O)O)N(C(=O)C3CCCCC3)[C@H]2c2ccccc2)c1 [II-132]	5.00 to 6.00	5.00 to 6.00	+++ (≥350)	< 100%
CC(C)(C)c1cc(CN[C@H]2[C@H](C(C)(C)C)[C@@H](C(=O)O)N(C(=O)C3CCCCC3)[C@H]2c2ccccc2)cc(C(C)(C)C)c1 [II-133]	5.00 to 6.00	5.00 to 6.00	++ (≥150 and <350)	< 100%
